{"source": "patent US12104173B2", "about": "“Method for differentiation of human pluripotent stem cell lines in suspension culture” (AGENCY FOR SCIENCE, TECHNOLOGY AND RESEARCH, priority 2018, dated 2024)", "assay_in_all_cases": "CHIR dose: hematopoietic/erythroid differentiation of agitated hPSC-MC aggregates", "type_in_all_cases": "cell-based, human", "key": {"BR2 O-neg hiPSC line": {"system": "BR2 O-neg hiPSC line", "experimental": "(§1) Human pluripotent stem cell-microcarrier (HPSC-MC) aggregates generated from different hPSC lines were differentiated using 3 different CHIR doses (5, 10 and 15 μM for 24 hours) and were evaluated for T-bra (day 2) and KDR+PDGFRβ− (day 4) expression by flow cytometry, induction of key hematopoietic transcription factors by RT-PCR (day 4), hematopoietic precursor expansion (day 14) and erythroblast expansion (day 42).\n(§2) Table 2—Hematopoietic differentiation of nine human pluripotent stem cell (hPSC) lines, from expansion in agitated microcarrier culture to erythroblast expansion—This table summarises the different stages of differentiation; hPSC expansion, mesoderm induction, hematopoietic precursor and erythroblast expansion of multiple hPSC-MC aggregate lines differentiated with optimal dose of CHIR-99021. Fold-expansion of hPSC-MC aggregates following 7 days of agitated culture, hematopoietic precursors following 14 days of culture in methylcellulose medium and erythroblast expansion following 24 days in expansion medium are reported. Flow cytometric evaluation of % T-bra+ cells on day 2 and % KDR+ cells on day 4 during mesoderm induction, % CD43+ cells during hematopoietic precursor expansion, % CD235a+ cells and fetal hemoglobin expression during erythroblast expansion stage are summarised. Total erythroid cells per hPSC seeded on day 42 was calculated as number of embryoid bodies derived on day 4 per hPSC seeded*erythroblast fold expansion*percent CD235a+ erythroblast.\n(§3) Analysis of Design of experiments (DoE) outcomes and evaluation of selected conditions generated by the MODDE® software allowed the development of an optimized protocol for hematopoietic mesoderm induction of human pluripotent stem cell-microcarrier (hPSC-MC) aggregates initially expanded under continuous agitation. Approximately 2 to 4 million hPSC-MC aggregates in 3 ml of Stemline® II medium were differentiated as follows: day 1; 30 ng/ml of BMP4, 50 ng/ml VEGF165, 12 μM CHIR-99021 (Selleck Chemicals, USA), 50 ng/ml Activin A, day 2; 30 ng/ml of BMP4, 50 ng/ml VEGF165, 50 ng/ml Activin A, day 3: 30 ng/ml of BMP4, 50 ng/ml VEGF165 and 20 ng/ml bFGF. Four days post-differentiation, single cells derived by TrypLE™ Express (ThermoFisher Scientific) treatment and strained through 40 μm cell strainers (Greiner Bio-one, Germany) were used for hematopoietic precursor and erythroblast expansion and erythroblast terminal maturation as detailed herein. Hematopoietic and erythroblast differentiation were monitored by flow cytometry, quantitative real-time PCR, immunoblotting and microscopic imaging. Oxygen binding affinity of differentiated erythroblast was determined using a Hemox Analyzer (TCS Scientific Corp, USA).\n(§4) HPSC-MC aggregates were dissociated into single cells by treatment with TrypLE. Express (ThermoFisher Scientific) for 5 minutes at 37° C., passed through 40 μm cell strainer (Greiner Bio-one), centrifuged at 1300 rpm for 3 minutes to pellet cells, and rinsed once with phosphate buffered saline (PBS) before re-suspension in Stemline II medium. Two hundred thousand cells in 100 μl of Stemline II medium were transferred to a 6-well ultra-low attachment plate and cultured with Blast growth medium (BGM) for 2 weeks in static conditions as detailed herein.\n(§5) Hematopoietic precursors were mixed with equal volume of Stemline II medium containing 50 ng/ml of SCF (STEMCELL. Technologies) and 3 U/ml EPO (Peprotech, USA), for an additional 7 days. Subsequently, cells were diluted 10-fold with PBS and pelleted by centrifugation at 3000 rpm for 10 minutes. […]"}, "D11 O-neg hiPSC line": {"system": "D11 O-neg hiPSC line", "experimental": "as §1, §2, §3, §4, §5"}, "D12 O-neg hiPSC line": {"system": "D12 O-neg hiPSC line", "experimental": "as §1, §2, §3, §4, §5"}, "hES-3 hESC line": {"system": "hES-3 hESC line", "settings": "for Erythroblast expansion Fold-expansion: optimal dose of CHIR-99021, 24 days in erythroblast expansion medium (static), cumulative", "experimental": "as §1, §2, §3, §4, §5"}, "IMR90 hiPSC line": {"system": "IMR90 hiPSC line", "settings": "for Erythroblast expansion Fold-expansion: optimal dose of CHIR-99021, 24 days in erythroblast expansion medium (static), cumulative", "experimental": "as §1, §2, §3, §4, §5"}, "[1]": {"settings": "15 μM CHIR dose, day 14 post differentiation"}, "[2]": {"settings": "15 μM CHIR for 24 hours, day 2, flow cytometry"}, "[3]": {"settings": "15 μM CHIR for 24 hours, day 4, flow cytometry"}, "[4]": {"settings": "erythroblast expansion medium, up to day 42"}, "[5]": {"settings": "optimal dose of CHIR-99021, 14 days in methyl cellulose medium"}, "[6]": {"settings": "optimal dose of CHIR-99021, 14 days in methyl cellulose medium (static)"}, "[7]": {"settings": "optimal dose of CHIR-99021, day 2"}, "[8]": {"settings": "optimal dose of CHIR-99021, day 4"}, "[9]": {"settings": "optimal dose of CHIR-99021, erythroblast expansion stage"}, "[10]": {"settings": "optimal dose of CHIR-99021, fetal hemoglobin, flow cytometry"}}}
{"smiles": "Cc1c[nH]c(-c2cnc(NCCNc3ccc(C#N)cn3)nc2-c2ccc(Cl)cc2Cl)n1", "note": "[CHIR-99021, 6-[[2-[[4-(2,4-Dichlorophenyl)-5-(5-methyl-1H-imidazol-2-yl)-2-pyrimidinyl]amino]ethyl]amino]-3-pyridinecarbonitrile]", "values": [{"measurement": "fold-expansion of hematopoietic precursors", "setting": "BR2 O-neg hiPSC line; [1]", "result": "8.07±2.06", "unit": "fold"}, {"measurement": "T-Bra+ cells", "setting": "BR2 O-neg hiPSC line; [2]", "result": "20.1±2.4", "unit": "%"}, {"measurement": "KDR+PDGFRβ- cells", "setting": "BR2 O-neg hiPSC line; [3]", "result": "24.07±1.34", "unit": "%"}, {"measurement": "erythroblast differentiation", "setting": "BR2 O-neg hiPSC line; [4]", "result": "failed to differentiate into erythroid cells"}, {"measurement": "Hematopoietic precursor expansion % CD43", "setting": "BR2 O-neg hiPSC line; [5]", "result": 8.7, "unit": "%"}, {"measurement": "Hematopoietic precursor expansion Fold-expansion", "setting": "BR2 O-neg hiPSC line; [6]", "result": 8.1, "unit": "fold"}, {"measurement": "Mesoderm induction % T-Bra", "setting": "BR2 O-neg hiPSC line; [7]", "result": 20.1, "unit": "%"}, {"measurement": "Mesoderm induction % KDR+ PDGFRα−", "setting": "BR2 O-neg hiPSC line; [8]", "result": 24.1, "unit": "%"}, {"measurement": "fold-expansion of hematopoietic precursors", "setting": "D11 O-neg hiPSC line; [1]", "result": "3.2±0.33", "unit": "fold"}, {"measurement": "T-Bra+ cells", "setting": "D11 O-neg hiPSC line; [2]", "result": "33.4±4.10", "unit": "%"}, {"measurement": "KDR+PDGFRβ- cells", "setting": "D11 O-neg hiPSC line; [3]", "result": "11.74±1.16", "unit": "%"}, {"measurement": "erythroblast differentiation", "setting": "D11 O-neg hiPSC line; [4]", "result": "failed to differentiate into erythroid cells"}, {"measurement": "Hematopoietic precursor expansion % CD43", "setting": "D11 O-neg hiPSC line; [5]", "result": 17.4, "unit": "%"}, {"measurement": "Hematopoietic precursor expansion Fold-expansion", "setting": "D11 O-neg hiPSC line; [6]", "result": 3.2, "unit": "fold"}, {"measurement": "Mesoderm induction % T-Bra", "setting": "D11 O-neg hiPSC line; [7]", "result": 33.4, "unit": "%"}, {"measurement": "Mesoderm induction % KDR+ PDGFRα−", "setting": "D11 O-neg hiPSC line; [8]", "result": 11.7, "unit": "%"}, {"measurement": "fold-expansion of hematopoietic precursors", "setting": "D12 O-neg hiPSC line; [1]", "result": "5.26±1.32", "unit": "fold"}, {"measurement": "T-Bra+ cells", "setting": "D12 O-neg hiPSC line; [2]", "result": "10.6±2.78", "unit": "%"}, {"measurement": "KDR+PDGFRβ- cells", "setting": "D12 O-neg hiPSC line; [3]", "result": "31.13±5.17", "unit": "%"}, {"measurement": "erythroblast differentiation", "setting": "D12 O-neg hiPSC line; [4]", "result": "failed to differentiate into erythroid cells"}, {"measurement": "Hematopoietic precursor expansion % CD43", "setting": "D12 O-neg hiPSC line; [5]", "result": 22, "unit": "%"}, {"measurement": "Hematopoietic precursor expansion Fold-expansion", "setting": "D12 O-neg hiPSC line; [6]", "result": 7.9, "unit": "fold"}, {"measurement": "Mesoderm induction % T-Bra", "setting": "D12 O-neg hiPSC line; [7]", "result": 10.9, "unit": "%"}, {"measurement": "Mesoderm induction % KDR+ PDGFRα−", "setting": "D12 O-neg hiPSC line; [8]", "result": 20.7, "unit": "%"}, {"measurement": "fold-expansion of hematopoietic precursors", "setting": "hES-3 hESC line; [1]", "result": "6.97±1.35", "unit": "fold"}, {"measurement": "T-Bra+ cells", "setting": "hES-3 hESC line; [2]", "result": "18±3.82", "unit": "%"}, {"measurement": "KDR+PDGFRβ- cells", "setting": "hES-3 hESC line; [3]", "result": "14.6±0.81", "unit": "%"}, {"measurement": "Total erythroid cells per hPSC seeded (day 42)", "setting": "hES-3 hESC line; optimal dose of CHIR-99021", "result": 244}, {"measurement": "Hematopoietic precursor expansion % CD43", "setting": "hES-3 hESC line; [5]", "result": 42.8, "unit": "%"}, {"measurement": "Hematopoietic precursor expansion Fold-expansion", "setting": "hES-3 hESC line; [6]", "result": 6.9, "unit": "fold"}, {"measurement": "Erythroblast expansion Fold-expansion", "setting": "hES-3 hESC line; day 42", "result": 324, "unit": "fold"}, {"measurement": "Erythroblast expansion Fold-expansion", "setting": "hES-3 hESC line; day 42, listed as CHIR", "result": "324±83.97", "unit": "fold"}, {"measurement": "Mesoderm induction % T-Bra", "setting": "hES-3 hESC line; [7]", "result": 18, "unit": "%"}, {"measurement": "Erythroblast expansion % CD235a+", "setting": "hES-3 hESC line; [9]", "result": 78.5, "unit": "%"}, {"measurement": "Erythroblast expansion Hemoglobin expression", "setting": "hES-3 hESC line; [10]", "result": 99.3}, {"measurement": "T-Bra+ cells", "setting": "IMR90 hiPSC line; [2]", "result": "17.22±7.4", "unit": "%"}, {"measurement": "KDR+PDGFRβ- cells", "setting": "IMR90 hiPSC line; [3]", "result": "14.2±1.69", "unit": "%"}, {"measurement": "Total erythroid cells per hPSC seeded (day 42)", "setting": "IMR90 hiPSC line; optimal dose of CHIR-99021", "result": 1300}, {"measurement": "Hematopoietic precursor expansion % CD43", "setting": "IMR90 hiPSC line; [5]", "result": 21.9, "unit": "%"}, {"measurement": "Hematopoietic precursor expansion Fold-expansion", "setting": "IMR90 hiPSC line; [6]", "result": 7.9, "unit": "fold"}, {"measurement": "Erythroblast expansion Fold-expansion", "setting": "IMR90 hiPSC line; day 42", "result": 918.1, "unit": "fold"}, {"measurement": "Erythroblast expansion Fold-expansion", "setting": "IMR90 hiPSC line; day 42, listed as CHIR", "result": "918.1±342.4", "unit": "fold"}, {"measurement": "Mesoderm induction % T-Bra", "setting": "IMR90 hiPSC line; [7]", "result": 17.2, "unit": "%"}, {"measurement": "Erythroblast expansion % CD235a+", "setting": "IMR90 hiPSC line; [9]", "result": 75.9, "unit": "%"}, {"measurement": "Erythroblast expansion Hemoglobin expression", "setting": "IMR90 hiPSC line; [10]", "result": 98.1}]}
